The results in this text go back to article PMC4076210, “Discovery of Novel AKT Inhibitors with Enhanced Anti-Tumor Effects in Combination with the MEK Inhibitor” (PLoS ONE, 2014).

Read-outs that look alike come from different tables or passages of the source. Where only a bound is given, the exact number is not on record here.

The inhibition is the relative decrease from the control value, in per cent. One may read the IC50 as the midpoint of a concentration-inhibition curve. Low readings indicate greater potency, high ones weaker potency.

What all share (type): biochemical
One assay deals with T1, EphA2(h) (Homo sapiens, UniProt P29317).
T1 construct: purchased Millipore KinaseProfiler
Kind of assay: Kinase panel.

The target of the next assay is T2, Haspin(h) (Homo sapiens, UniProt Q8TF76).
T2 construct: purchased Millipore KinaseProfiler
T2 sequence (Q8TF76 1-798): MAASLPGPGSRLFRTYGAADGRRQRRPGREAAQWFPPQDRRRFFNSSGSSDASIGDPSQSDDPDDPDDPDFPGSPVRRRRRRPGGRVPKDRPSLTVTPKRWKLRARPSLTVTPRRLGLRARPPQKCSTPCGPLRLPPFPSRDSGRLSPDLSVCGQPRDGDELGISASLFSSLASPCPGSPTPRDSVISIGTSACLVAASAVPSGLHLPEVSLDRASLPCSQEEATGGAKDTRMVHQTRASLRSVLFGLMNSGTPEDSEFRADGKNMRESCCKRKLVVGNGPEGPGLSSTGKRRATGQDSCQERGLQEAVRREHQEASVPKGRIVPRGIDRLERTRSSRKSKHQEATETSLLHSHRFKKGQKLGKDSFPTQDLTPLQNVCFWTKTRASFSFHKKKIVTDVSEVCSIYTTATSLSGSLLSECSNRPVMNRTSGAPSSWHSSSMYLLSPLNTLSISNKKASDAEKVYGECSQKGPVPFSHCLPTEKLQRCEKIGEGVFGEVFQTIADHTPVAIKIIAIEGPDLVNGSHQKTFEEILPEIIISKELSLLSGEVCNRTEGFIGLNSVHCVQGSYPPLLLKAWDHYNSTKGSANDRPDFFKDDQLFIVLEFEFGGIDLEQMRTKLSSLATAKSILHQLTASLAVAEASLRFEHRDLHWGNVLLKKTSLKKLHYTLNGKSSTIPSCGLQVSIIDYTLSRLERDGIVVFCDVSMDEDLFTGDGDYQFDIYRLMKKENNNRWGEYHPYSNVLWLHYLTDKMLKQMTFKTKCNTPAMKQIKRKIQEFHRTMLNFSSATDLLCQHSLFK
The experiment in a line: Kinase panel.

A further assay addresses T3, Itk(h) (Homo sapiens, UniProt Q08881).
T3 construct: purchased Millipore KinaseProfiler
T3 sequence (Q08881 1-620): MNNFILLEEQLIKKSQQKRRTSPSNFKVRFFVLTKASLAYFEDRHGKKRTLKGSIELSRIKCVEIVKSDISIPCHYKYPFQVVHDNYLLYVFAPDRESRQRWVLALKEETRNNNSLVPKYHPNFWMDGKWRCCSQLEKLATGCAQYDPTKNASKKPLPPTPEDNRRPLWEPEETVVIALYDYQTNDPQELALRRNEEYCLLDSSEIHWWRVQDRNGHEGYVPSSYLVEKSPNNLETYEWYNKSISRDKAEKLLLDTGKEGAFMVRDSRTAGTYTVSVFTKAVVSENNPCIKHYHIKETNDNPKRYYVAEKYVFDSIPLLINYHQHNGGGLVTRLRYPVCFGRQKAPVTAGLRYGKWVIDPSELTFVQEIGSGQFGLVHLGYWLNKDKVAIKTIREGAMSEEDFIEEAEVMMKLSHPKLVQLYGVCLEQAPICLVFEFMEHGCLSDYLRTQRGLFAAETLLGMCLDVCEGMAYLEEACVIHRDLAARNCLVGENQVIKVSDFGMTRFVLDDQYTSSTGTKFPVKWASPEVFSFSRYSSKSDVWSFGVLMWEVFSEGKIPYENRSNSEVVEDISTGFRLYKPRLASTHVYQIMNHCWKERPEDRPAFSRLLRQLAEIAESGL
The experiment in a line: Kinase panel.

The next assay deals with T4, JAK2(h) (Homo sapiens, UniProt O60674).
T4 construct: purchased Millipore KinaseProfiler
Kind of assay: Kinase panel.

The next assay addresses T5, MLK1(h) (Homo sapiens, UniProt P80192).
T5 construct: purchased Millipore KinaseProfiler
Kind of assay: Kinase panel.

For the next assay, the target named is T6, SGK2(h) (Homo sapiens, UniProt Q9HBY8).
T6 construct: purchased Millipore KinaseProfiler
T6 sequence (Q9HBY8 1-367): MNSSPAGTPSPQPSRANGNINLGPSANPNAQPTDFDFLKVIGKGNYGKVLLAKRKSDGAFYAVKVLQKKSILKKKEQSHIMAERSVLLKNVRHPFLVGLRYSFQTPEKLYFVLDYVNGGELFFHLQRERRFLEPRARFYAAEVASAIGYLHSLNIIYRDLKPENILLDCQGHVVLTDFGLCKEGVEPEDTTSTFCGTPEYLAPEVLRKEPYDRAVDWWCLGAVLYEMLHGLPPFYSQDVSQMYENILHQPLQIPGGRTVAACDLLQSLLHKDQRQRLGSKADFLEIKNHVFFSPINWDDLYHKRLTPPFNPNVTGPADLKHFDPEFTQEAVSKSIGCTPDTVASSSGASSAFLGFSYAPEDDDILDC
The experiment in a line: Kinase panel.

The target of the next assay is PKCμ (Homo sapiens, UniProt Q15139). The experiment in a line: Kinase IC50 assay.
PKCμ, sequence (Q15139 whole entry): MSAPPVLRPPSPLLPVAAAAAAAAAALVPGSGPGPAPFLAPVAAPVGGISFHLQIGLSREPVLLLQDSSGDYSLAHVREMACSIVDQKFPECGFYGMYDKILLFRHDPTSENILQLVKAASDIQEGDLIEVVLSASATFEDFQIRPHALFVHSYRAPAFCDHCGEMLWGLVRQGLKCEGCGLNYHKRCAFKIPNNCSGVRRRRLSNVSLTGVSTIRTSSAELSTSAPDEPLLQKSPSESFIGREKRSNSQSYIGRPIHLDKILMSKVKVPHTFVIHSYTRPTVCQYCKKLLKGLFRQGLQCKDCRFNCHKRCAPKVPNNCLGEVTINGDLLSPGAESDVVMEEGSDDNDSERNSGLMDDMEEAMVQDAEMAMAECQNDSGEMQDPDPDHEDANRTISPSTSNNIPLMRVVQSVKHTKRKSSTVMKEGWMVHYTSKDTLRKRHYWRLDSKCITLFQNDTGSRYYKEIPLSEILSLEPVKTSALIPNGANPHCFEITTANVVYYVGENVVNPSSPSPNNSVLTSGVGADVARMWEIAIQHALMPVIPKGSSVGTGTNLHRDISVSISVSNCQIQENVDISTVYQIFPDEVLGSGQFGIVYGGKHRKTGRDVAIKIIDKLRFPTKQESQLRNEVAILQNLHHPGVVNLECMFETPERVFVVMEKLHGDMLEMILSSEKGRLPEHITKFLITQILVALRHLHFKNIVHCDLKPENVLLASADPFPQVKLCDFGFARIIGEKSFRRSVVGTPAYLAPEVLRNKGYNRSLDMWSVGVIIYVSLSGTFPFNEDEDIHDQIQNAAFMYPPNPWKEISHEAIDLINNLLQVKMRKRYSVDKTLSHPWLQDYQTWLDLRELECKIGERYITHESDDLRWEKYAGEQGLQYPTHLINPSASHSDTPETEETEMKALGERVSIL

T4 sequence (O60674 whole entry): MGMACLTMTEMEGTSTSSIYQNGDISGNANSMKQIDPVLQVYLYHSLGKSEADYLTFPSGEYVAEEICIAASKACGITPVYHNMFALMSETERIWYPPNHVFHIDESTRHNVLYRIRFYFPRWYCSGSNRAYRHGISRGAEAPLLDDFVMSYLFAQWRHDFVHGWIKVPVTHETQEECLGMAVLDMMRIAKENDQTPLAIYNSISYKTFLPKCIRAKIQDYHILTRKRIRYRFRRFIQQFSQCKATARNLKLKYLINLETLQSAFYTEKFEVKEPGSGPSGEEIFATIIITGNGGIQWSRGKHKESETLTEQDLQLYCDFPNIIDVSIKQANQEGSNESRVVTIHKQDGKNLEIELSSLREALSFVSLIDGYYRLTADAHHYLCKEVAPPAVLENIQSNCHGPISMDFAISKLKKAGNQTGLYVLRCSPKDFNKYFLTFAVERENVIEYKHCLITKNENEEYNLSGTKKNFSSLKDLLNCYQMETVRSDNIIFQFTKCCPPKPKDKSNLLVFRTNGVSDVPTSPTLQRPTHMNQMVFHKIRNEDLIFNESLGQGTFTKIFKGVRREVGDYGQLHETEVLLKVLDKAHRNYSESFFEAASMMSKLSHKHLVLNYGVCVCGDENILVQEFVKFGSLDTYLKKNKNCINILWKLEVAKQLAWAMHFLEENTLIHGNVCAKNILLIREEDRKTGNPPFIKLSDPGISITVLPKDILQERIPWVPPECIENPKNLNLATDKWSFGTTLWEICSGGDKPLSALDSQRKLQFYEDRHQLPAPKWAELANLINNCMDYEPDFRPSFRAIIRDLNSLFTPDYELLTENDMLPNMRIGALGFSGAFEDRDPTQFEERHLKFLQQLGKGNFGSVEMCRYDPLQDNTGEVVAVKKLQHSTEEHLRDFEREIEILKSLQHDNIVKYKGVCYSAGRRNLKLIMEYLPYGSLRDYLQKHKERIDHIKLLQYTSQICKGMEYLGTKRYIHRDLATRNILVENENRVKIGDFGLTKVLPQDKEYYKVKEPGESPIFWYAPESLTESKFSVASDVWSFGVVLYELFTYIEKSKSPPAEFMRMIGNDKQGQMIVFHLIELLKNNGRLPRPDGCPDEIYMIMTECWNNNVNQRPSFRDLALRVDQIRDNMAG
T5 sequence (P80192 whole entry): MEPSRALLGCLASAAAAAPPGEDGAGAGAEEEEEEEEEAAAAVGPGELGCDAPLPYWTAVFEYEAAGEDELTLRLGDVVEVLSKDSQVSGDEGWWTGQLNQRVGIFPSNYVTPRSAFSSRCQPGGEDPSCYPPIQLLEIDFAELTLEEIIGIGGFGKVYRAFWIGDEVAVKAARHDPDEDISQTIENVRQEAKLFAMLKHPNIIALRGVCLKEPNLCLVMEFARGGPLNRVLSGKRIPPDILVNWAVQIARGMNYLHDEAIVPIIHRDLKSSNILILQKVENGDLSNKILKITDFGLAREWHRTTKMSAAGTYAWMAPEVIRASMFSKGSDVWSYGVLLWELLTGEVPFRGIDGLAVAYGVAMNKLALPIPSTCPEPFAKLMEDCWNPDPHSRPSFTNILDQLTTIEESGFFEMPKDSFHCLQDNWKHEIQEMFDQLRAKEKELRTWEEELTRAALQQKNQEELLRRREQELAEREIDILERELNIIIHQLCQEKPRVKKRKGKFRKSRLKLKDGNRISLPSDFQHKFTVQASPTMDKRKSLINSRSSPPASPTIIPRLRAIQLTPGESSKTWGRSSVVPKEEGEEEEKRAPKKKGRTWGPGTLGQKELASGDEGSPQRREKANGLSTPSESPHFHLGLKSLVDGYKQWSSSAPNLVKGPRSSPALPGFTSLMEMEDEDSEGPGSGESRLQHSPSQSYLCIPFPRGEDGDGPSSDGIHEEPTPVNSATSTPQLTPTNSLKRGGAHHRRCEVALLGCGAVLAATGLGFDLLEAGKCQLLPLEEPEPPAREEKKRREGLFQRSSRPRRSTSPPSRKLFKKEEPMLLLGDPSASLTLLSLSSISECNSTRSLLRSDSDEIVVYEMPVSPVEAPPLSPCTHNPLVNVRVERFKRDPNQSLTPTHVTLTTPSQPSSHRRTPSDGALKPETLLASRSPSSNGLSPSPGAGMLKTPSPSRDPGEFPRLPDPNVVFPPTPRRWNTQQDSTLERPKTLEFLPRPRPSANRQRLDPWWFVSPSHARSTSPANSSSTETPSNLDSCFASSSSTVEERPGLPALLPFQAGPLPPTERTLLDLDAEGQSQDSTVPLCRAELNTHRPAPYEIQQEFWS
T1 sequence (P29317 24-976): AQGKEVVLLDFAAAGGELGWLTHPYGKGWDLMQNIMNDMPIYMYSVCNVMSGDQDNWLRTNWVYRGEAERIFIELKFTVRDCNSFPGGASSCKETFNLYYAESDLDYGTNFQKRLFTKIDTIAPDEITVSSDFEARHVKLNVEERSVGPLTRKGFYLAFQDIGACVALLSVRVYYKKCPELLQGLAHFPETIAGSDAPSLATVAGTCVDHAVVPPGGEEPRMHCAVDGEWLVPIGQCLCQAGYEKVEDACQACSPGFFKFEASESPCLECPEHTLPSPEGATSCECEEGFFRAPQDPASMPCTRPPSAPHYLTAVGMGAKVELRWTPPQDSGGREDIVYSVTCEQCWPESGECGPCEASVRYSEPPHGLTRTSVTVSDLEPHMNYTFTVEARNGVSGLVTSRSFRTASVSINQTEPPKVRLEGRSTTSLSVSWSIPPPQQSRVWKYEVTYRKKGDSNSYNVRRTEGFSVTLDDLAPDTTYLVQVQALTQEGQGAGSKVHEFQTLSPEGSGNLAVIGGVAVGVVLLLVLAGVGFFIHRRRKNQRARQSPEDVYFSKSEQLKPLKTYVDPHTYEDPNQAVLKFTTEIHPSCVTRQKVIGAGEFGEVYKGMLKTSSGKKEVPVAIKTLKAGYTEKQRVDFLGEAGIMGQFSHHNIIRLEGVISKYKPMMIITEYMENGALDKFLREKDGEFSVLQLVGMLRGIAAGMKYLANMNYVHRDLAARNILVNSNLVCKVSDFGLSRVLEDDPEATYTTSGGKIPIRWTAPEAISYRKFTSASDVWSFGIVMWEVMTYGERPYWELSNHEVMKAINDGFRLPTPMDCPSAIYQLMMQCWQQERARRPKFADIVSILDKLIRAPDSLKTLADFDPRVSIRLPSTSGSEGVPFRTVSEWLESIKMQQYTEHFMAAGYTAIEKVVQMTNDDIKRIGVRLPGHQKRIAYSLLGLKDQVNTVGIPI

Consider `Cn1ncc(Cl)c1-c1cc(C(=O)N[C@H](CN)Cc2cccc(F)c2)sc1Cl` [GSK2110183], for which the inhibition at 0.5 µM at EphA2(h) was -17%; against Haspin(h), 46%; against Itk(h), 0%; against JAK2(h) it was -31%; against MLK1(h), -8%; against SGK2(h) it was 51%. Besides, the inhibition at 10 µM was -4% on EphA2(h); 90% on Haspin(h); 2% against Itk(h); -55% on JAK2(h); 11% at MLK1(h); 95% on SGK2(h). The concentration for half-maximal inhibition (IC50) against PKCμ is > 1000 nM.
As to `Cn1ncc(Cl)c1-c1cc(C(=O)N[C@H](CN)Cc2ccc(F)c(F)c2)oc1Cl` [GSK2141795], the inhibition at 0.5 µM at EphA2(h) (0.5 µM, read-out: % Inhibition) is 25%; on Haspin(h) (0.5 µM, read-out: % Inhibition) it was 76%; at Itk(h) (0.5 µM, read-out: % Inhibition), -15%; on JAK2(h) (0.5 µM, read-out: % Inhibition) it was -13%; on MLK1(h) (0.5 µM, read-out: % Inhibition), -14%; at SGK2(h) (0.5 µM, read-out: % Inhibition), 67%. The inhibition at 10 µM is 39% on EphA2(h) (10 µM, read-out: % Inhibition); 101% at Haspin(h) (10 µM, read-out: % Inhibition); -7% at Itk(h) (10 µM, read-out: % Inhibition); -27% on JAK2(h) (10 µM, read-out: % Inhibition); 45% on MLK1(h) (10 µM, read-out: % Inhibition); 97% on SGK2(h) (10 µM, read-out: % Inhibition). The molecule further showed an IC50 at PKCμ of 690 nM.
